# Reference: US9545393B2, “Methods and compositions for treating pain” (The Board of Trustees of the Leland Stanford Junior …, priority 2012, dated 2017)
# Entries after “also recorded” stand apart in the source; their conditions may differ.
# Key:
# malondialdehyde (MDA) = assay: Thiobarbituric acid-reactive substance assay (malondialdehyde) in paw homogenate; format: in vivo, rat; conditions: rats, 3 hours after carrageenan; P<0.05
# Method: Thiobarbituric acid-reactive substance assay. Thiobarbituric acid-reactive substance (TBARS) was measured using an Oxi-Tek TBARS assay kit (ZeptoMetrix, Buffalo, N.Y.). In brief, 100 μL of plantar homogenates were mixed with 100 μl sodium dodecyl sulfonate solution. TBA/buffer reagent was prepared by mixing 0.5 g thiobarbituric acid with 50 ml acetic acid and 50 ml NaOH. TBA/buffer reagent (2.5 ml) was added to 200 μL sample/sodium dodecyl sulfonate mixture and incubated at 95° C. in capped tubes for 60 min. The samples were cooled to room temperature in an ice bath for 10 min and centrifuged at 3,000 g for 15 min. The supernatants were removed, and fluorescence intensity was measured in semi-microcuvettes in a fluorometer (Bio-Rad Laboratories, Hercules, Calif.). The concentration of TBARS was expressed in pmol/mg protein by interpolation from a standard curve of malondialdehyde at 0-200 pmol concentrations. The results are expressed as percent control.
# [1] = test system: early growth response protein 1 (EGR1); assay: EGR1 immunohistochemistry of L4-L6 spinal cord; format: in vivo, rat; conditions: rats, 3 hours after carrageenan; carrageenan alone increased ~5 fold
# Method: Immunohistochemistry. Animals were anesthetized with ketamine (90 mg/kg) and xylazine (15 mg/kg) after 3 hours of the experimental protocol. Subsequently, animals were perfused with 4% paraformaldehyde (PFA) in 0.1 M phosphate buffer (PB, pH 7.4). Spinal cord sections (L4-L6) were removed, post-fixed for 4 h in PFA (4%), and transferred to a 30% sucrose solution in PB to ensure cryoprotection. […] The sections were immunostained for early growth response-1 gene (EGR1) expression, using a rabbit polyclonal antibody (Santa Cruz Biotechnology 1:500) in PB containing 0.3% Triton X-100 and 5% normal donkey serum. Incubations with primary antibody were conducted overnight at 24° C. The sections were then washed in PB and incubated with a biotinylated donkey anti-rabbit serum (Vector, Burlingame 1:200) in PB for 2 h at 24° C. The sections were washed again in PB and incubated with the avidin-biotin-peroxidase complex (ABC Elite, Vector Labs, USA). The sections were then reacted with 0.05% 3,3-diaminobenzidine and 0.01% hydrogen peroxide in PB. Intensification was conducted with 0.05% osmium tetroxide in water. The sections were dehydrated, cleared and mounted on a cover-slip. Normal rat serum served as control. Digital images of light microscopy were collected and cells with positive EGR were counted.
# [2] = test system: 4-hydroxynonenal (4-HNE) protein adducts; assay: Western blot of 4-HNE protein adducts in inflamed paw; format: in vivo, rat; conditions: rats, 3 hours after carrageenan; P<0.01
# Method: Biochemical Studies In Rats and Mice. Protein was isolated from rat paw tissue at 3 hours after treatment or from liver tissue of mutant or wild type mice. Tissues were homogenized in buffer containing (Hepes 10 mM, NaCl 0.9%, EGTA 1 mM, DTPA 100 μM, Triton-X 1%, Protease and Phosphatase inhibitors (AEBSF, Aprotinin, Bestatin, E-64, Leupeptin, Pepstatin A, Sodium orthovanadate, Sodium molybdate, Sodium tartrate, Imidazole, Cantharidin, (−)-p-Bromolevamisole oxalate and Calyculin A). The samples were centrifuged at 700 g for 5 min at 4° C. Mitochondrial fraction from liver was obtained as previously described (Chen, et al. (2008) Activation of aldehyde dehydrogenase-2 reduces ischemic damage to the heart. Science 321, 1493-1495; Sun, L., et al. ALDH2 activator inhibits increased myocardial infarction injury by nitroglycerin tolerance. Sci Transl Med 3, 107ra111). Activation of aldehyde dehydrogenase-2 reduces ischemic damage to the heart. Science 2008; 321:1493-5). The protein concentration was determined in the supernatants by using Bradford (Bradford, M. M. (1976). A rapid and sensitive method for the quantitation of microgram quantities of protein utilizing the principle of protein-dye binding. Anal Biochem 72, 248-254).
# Western blot analysis. […] Quantification analysis of blots was performed with Image J software, using GAPDH as a loading control.
# ALDH2 *1/*2 mice = assay: Acetaldehyde vapor experiments with sub-threshold carrageenan, von Frey nociception; format: in vivo, mouse; conditions: ALDH2 *1/*2 mice exposed to acetaldehyde vapor, with Alda-1
# Method: von Frey hair testing method: Hind paw nociception was assessed with six different von Frey hairs (0.03, 0.17, 0.41, 0.69, 1.20 and 1.48 g). Mice were placed individually in a plastic cage with a wire mesh bottom. After acclimation for at least 15 min, a von Frey hair was pressed perpendicularly against the plantar skin surface and held for approximately 5 seconds until hair slightly buckled. Using the same stimulation intensity […], each individual hair was applied six times to each hind paw at intervals of several seconds.
# Since the response to each von Frey stimulus is fairly subjective, we used a method of objectifying these nociceptive responses by assigning a specific number to the response. Our scoring system consisted of: […], 1=withdraws paw from hair and 0=immediate flinching or hind paw licking. This method was previously shown by others to provide a reliable, objective assessment of pain response using von Frey hairs (Dale C S, et al., (2009) Analgesic properties of S100A9 C-terminal domain: a mechanism dependent on calcium channel inhibition. Fundamental & clinical pharmacology 23: 427-438; Takasaki I, et al., (2000) Allodynia and hyperalgesia induced by herpes simplex virus type-1 infection in mice. Pain 86: 95-101).
# Acetaldehyde Experiments. […] A subset of these mice was exposed to acetaldehyde vapor with or without Alda-1. […]
smiles,measurement,setting,value
"O=C(NCc1ccc2c(c1)OCO2)c1c(Cl)cccc1Cl [Alda-1, N-(1,3-benzodioxol-5-ylmethyl)-2,6-dichlorobenzamide]",Malondialdehyde (MDA) levels in the inflamed paw,malondialdehyde (MDA),reduced
same,EGR1 levels in L4-6 spinal cord (marker of hyperalgesia),[1],brought EGR1 levels to those seen in baseline; also recorded: brought back to basal levels
same,4-HNE-protein adduct levels in the inflamed paw,[2],reduced
same,Acetaldehyde-exacerbated hyperalgesia after carrageenan (50 μg),ALDH2 *1/*2 mice,rescued; also recorded: reversed
